Measurements taken from patent US10357485B1, “Anti-cancer compound” (KING SAUD UNIVERSITY, priority 2018, dated 2019).
pIC50: −log10 of the molar value. Like-named read-outs stand apart in the source and are kept apart here.

Experiments:
Format in all cases: cell-based, human
JURKAT cells [1] = test: FITC Annexin V/PI apoptosis assay by flow cytometry; settings: 48 h of treatment, compound 4 at 10.33 μM
Method: To determine whether the antiproliferative effect of compound 4 can trigger cell apoptosis, the percentage of JURKAT cells undergoing apoptosis was determined by flow cytometric analysis after the cells were stained with FITC Annexin V and proidium iodide (PI). […] As depicted in FIGS. 6A-6G, after 48 h of treatment with compound 4, a significant accumulation of AnnexinV^+ was observed, relative to CTP treated cells. 45.21% and 12.54% of cells were determined to be in early apoptosis (AnnexinV^+) when treated with compound 4 and CTP, respectively. Similarly, 46.32% and 14.33% of cells were determined to be in late apoptosis (AnnexinV^+, PI^+) when treated with compound 4 and CTP, respectively. Apoptosis assay was performed using FITC Annexin V Apoptosis Detection Kit I (BD Biosciences, San Jose, Calif., USA). The fluorescence intensities of FITC-conjugated Annexin V and PI in compound 4 treated, control treated and untreated cells were analyzed using flow cytometry. Briefly, JURKAT cells (1×10^6 cells/well) were seeded in a 6-well plate. […] Following trypsinization, cells were centrifuged at 1000×g for 10 min, and the pellet was gently resuspended in 100 μL FITC Annexin V binding buffer and then incubated with 5 μL of FITC Annexin V in the dark for 10 min at 25° C. The cells were then centrifuged at 2000 rpm for 5 min, gently resuspended in 500 μL of FITC Annexin V binding buffer and 5 μL of PI was added in an ice bath, followed by flow cytometry (BD FACS Calibur, San Jose, Calif., USA) the apoptotic cells were analyzed using Cell Quest software.

JURKAT cells [2] = test: MTT cytotoxicity assay on JURKAT cells; settings: for pIC50: Homo sapiens, JURKAT cells
Method: As described in detail herein, a cytotoxicity assay of compound 4 was performed on four human cancer cell lines—JURKAT, NCI-H460, HCT116 and MCF7—with camptothecin (CPT) as a positive control. The inhibitory effects of compound 4 on JURKAT, NCI-H460, HCT116 and MCF7 cancer cells were determined by an MTT (3-[4,5-dimethylthiazol-2-yl]-2,5 diphenyltetrazolium bromide) assay. The cancer cells were exposed to compound 4 at various concentrations of 1, 5, 10, 15, and 20 μM for different incubation periods of 24 h and 48 h. […] The stock solutions of 1 mM compound 4 and camptothecin (40 μM) were prepared, respectively, in DMSO. Further dilutions of 1, 5, 10, 15, and 20 μM were made in Dulbecco's Modified Eagle's Medium (DMEM) for treatment of cancer cells. MCF-7 (human breast cancer); HCT116 (human colon cancer); NCI-H460 (human non-small lung cancer); and JURKAT (human T-cell lymphoma) cell lines were obtained from the National Centre for Cell Science (NCCS, Pune, India). All cells were cultured in DMEM—except JURKAT cells, which were cultured in RPMI media—and supplemented with 10% fetal bovine serum (HiMedia, India) with penicillin (100 I.U/mL) and streptomycin (100 μg/mL) at 37° C. in a humidified atmosphere of 5% CO2 in air. Cultured cells of 75-85% confluency were used for the assays. Adherent cells were trypsinized, counted and seeded in 96-well plates for viability studies. Cells were allowed to adhere overnight before treatment in the experiments. JURKAT cells were washed with D-PBS, counted and seeded in 96-well plates for viability studies. Cytotoxicity of compound 4 for JURKAT cells was determined by 3-(4,5-dimethylthiazol-2-yl)-2,5-diphenyltetrazolium bromide (MTT) assay. In brief, cells were seeded with different concentrations of compound 4—specifically 1, 5, 10, 15, and 20 μM—in 96 wells plate at a density of 20000 cells per well and incubated for 24 h and 48 h at 37° C., in a CO2 incubator. The MTT assay was performed according to manufacturer instructions and absorbance of the treated and untreated cells were measured in a microplate reader at 570 nm wavelength. Results were represented as percentage of viability={[A570 (treated cells)−background]/[A570 (untreated cells)−background]}×100. Each treatment was performed in triplicate (N=3).

JURKAT cells [3] = test: Cell cycle analysis, propidium iodide staining, flow cytometry; settings: 48 h, 10.33 μM
Method: Therefore, interruption of cell cycle progression is an important target for cancer treatment. JURKAT cells were treated with compound 4 for 48 h and stained with propidium iodide to determine the proportion of cells undergoing apoptosis or cell death as analyzed by flow cytometry. […] The percentage of compound 4-treated cells decreased in G0/G1 and G2/M phase. […] Checkpoints are the pathways that halt progression of the cell cycle in response to cellular stress. Targeting checkpoint pathways are potential anti-cancer strategies because abrogation of checkpoint function drives tumor cells toward apoptosis and enhances the efficacy of oncotherapy. The cell cycle phase evaluation was performed as described by […] et al. (2007). Jurkat cells were plated at 1×10^6 cells/well in a six-well plate for 12 h and then cells were exposed with compound-4 in serum-free media and incubated for an additional 48 h. […] Following trypsinization, cells were centrifuged at 1000×g for 10 min, and the pellet was resuspended in PBS. Fixation was completed by adding 70% cold ethanol for at least 2 h. The fixed cells were centrifuged at 1000 g for 10 min, and the pellet suspended in PBS. After 60 s, the cells were centrifuged as before, and the pellet resuspended in 1 ml of propidium iodide (PI) staining solution. Immediately after 15 min incubation at 37° C., the cells were analyzed to determine the cell cycle stage using flow cytometry (BD FACS Calibur, San Jose, Calif., USA) with an excitation wavelength of 488 nm and an emission at 670 nm using the Cell Quest software for analysis. The data presented represent at least three independent experiments conducted in triplicate (N=3).

[4] = test system: Caspase-3 in JURKAT cells; test: Caspase-3 expression assay, FITC staining, flow cytometry; settings: 48 h, 10.33 μM, CPT 40 μM
Method: Caspase-3 expression was measured using FITC staining. […] Apoptotic caspases are believed to be activated in a protease cascade in which the activated apical caspases responding to apoptotic stimuli directly activate the executioner (effector) caspases in a precisely controlled process. Among these effector caspases, caspase-3, a member of the cysteine protease family, plays a central role in the execution phase of both intrinsic (mitochondrial) and extrinsic (death receptor) pathways of apoptosis by cleaving many key cellular proteins, such as poly (ADP ribose) polymerase (PARP), inhibitor of caspase-activated DNase (ICAD), and several others. Briefly, JURKAT cells (1×10^6 cells/well) were seeded in a 6-well plate. […] The JURKAT cells were harvested and then fixed with 70% ice-cold ethanol followed by incubation at −20° C. for 30 min. The fixed JURKAT cells were washed twice with PBS and treated with 20 μl of Caspase-3-FITC (BD Biosciences) and incubated for 60 min at room temperature in dark conditions. Cells were washed with PBS and resuspended in 0.5 ml of PBS, before analysis for Caspase-3 expression using BD FACS Callibur (San Jose, Calif., USA).

JURKAT cells [5] = test: Mitochondrial membrane potential (ΔΨm) assay, JC-1 staining; settings: 48 h, 10.33 μM
Method: Mitochondrial membrane depolarization is an early event in apoptosis. Chemotherapeutic agents usually induce apoptosis via the mitochondrial pathway. Evaluation of the effect of compound 4 treatment on mitochondrial membrane depolarization was determined using flow cytometry after staining with mitochondrial potential-sensitive dye JC-1. […] Mitochondrial membrane potential (ΔΨm) was determined using JC-1, a fluorescent carbocyanine dye (Smiley et al., 1991). Briefly, JURKAT cells (1×10^6 cells/well) were seeded in a 6-well plate. […] Each of the cell pellets were incubated with 2.5 μM JC-1 for 15 min at 37° C. in darkness. Subsequently, stained cells were washed with PBS, followed by FACS analysis (BD FACS Calibur, San Jose, Calif., USA).

NCI-H460 cells = test: MTT cytotoxicity assay on NCI-H460 cells; settings: NCI-H460, 1-20 μM, 24 and 48 hours
Method: (§1) As described in detail herein, a cytotoxicity assay of compound 4 was performed on four human cancer cell lines—JURKAT, NCI-H460, HCT116 and MCF7—with camptothecin (CPT) as a positive control. The inhibitory effects of compound 4 on JURKAT, NCI-H460, HCT116 and MCF7 cancer cells were determined by an MTT (3-[4,5-dimethylthiazol-2-yl]-2,5 diphenyltetrazolium bromide) assay. The cancer cells were exposed to compound 4 at various concentrations of 1, 5, 10, 15, and 20 μM for different incubation periods of 24 h and 48 h. […] The stock solutions of 1 mM compound 4 and camptothecin (40 μM) were prepared, respectively, in DMSO. Further dilutions of 1, 5, 10, 15, and 20 μM were made in Dulbecco's Modified Eagle's Medium (DMEM) for treatment of cancer cells. […] Adherent cells were trypsinized, counted and seeded in 96-well plates for viability studies. […] JURKAT cells were washed with D-PBS, counted and seeded in 96-well plates for viability studies. Cytotoxicity of compound 4 for JURKAT cells was determined by 3-(4,5-dimethylthiazol-2-yl)-2,5-diphenyltetrazolium bromide (MTT) assay. […] The MTT assay was performed according to manufacturer instructions and absorbance of the treated and untreated cells were measured in a microplate reader at 570 nm wavelength. […]

JURKAT cells [6] = test: DNA fragmentation by TUNEL assay; settings: 48 h, 10.33 μM
Text: DNA fragmentation is a key feature of apoptosis, and is largely due to activation of endogenous endonucleases that induce cleavage of chromatin DNA into internucleosomal fragments of roughly 180 base pairs. Apoptosis can be qualitatively assessed by monitoring DNA fragmentation trends, for instance, using terminal deoxynucleotidyl transferase dUTP nick end labeling (TUNEL) assay. For untreated […] cells, TUNEL assay results indicated a constant base line of TUNEL-positive cells. […] DNA fragmentation was monitored in treated, control treated and untreated JURKAT cells to identify stages of apoptosis. […] Supernatant and adherent cells were collected in a centrifuge tube and then washed twice with PBS. The cells were fixed with 70% ice-cold ethanol by incubating at -20° C. for 30 min. The fixed cells were resuspended in wash buffer, and then washed twice by centrifugation. 50 μl of DNA labeling solution was added to each cell pellet. The cell pellets were incubated with the DNA labeling solution at 37° C. for 60 min. The cell pellets were rinsed with rinse buffer and then resuspended with 0.5 ml of PI/RNase Staining Buffer and incubated for 30 min at RT. Flow cytometry was performed to detect DNA fragmentation (BD FACS Calibur, San Jose, Calif., USA).

MCF7 cells = test: MTT cytotoxicity assay on MCF7 cells; settings: MCF7, 1-20 μM, 24 and 48 hours
Method: as §1

HCT116 cells = test: MTT cytotoxicity assay on HCT116 cells; settings: HCT116, 1-20 μM, 24 and 48 hours
Method: as §1

CC[C@@]1(O)C(=O)OCc2c1cc1n(c2=O)Cc2cc3ccccc3nc2-1 [CPT, camptothecin, reference compound]
cells in early apoptosis (AnnexinV+) (JURKAT cells [1]): 12.54%
cells in late apoptosis (AnnexinV+, PI+) (JURKAT cells [1]): 14.33%
pIC50 (JURKAT cells [2]; given as treatment concentration, time not stated, read-out: IC50 of CPT as stated in the methods): 4.40

O=C1/C(=C/c2ccc(Br)cc2)CN2CC13C(c1ccc(Br)cc1)C1Cc4ccccc4CN1C31c3cccc4cccc(c34)[C@@]21O (some centres unmarked) [compound 4]
percentage of cells in G0/G1 phase (JURKAT cells [3]): decreased
percentage of cells in G2/M phase (JURKAT cells [3]): decreased
percentage of cells in S phase compared to untreated cells (JURKAT cells [3]): significantly increased
percentage of cells in sub G0/G1 phase compared to untreated cells (JURKAT cells [3]): moderately increased
cells in early apoptosis (AnnexinV+) (JURKAT cells [1]): 45.21%
cells in late apoptosis (AnnexinV+, PI+) (JURKAT cells [1]): 46.32%
caspase-3 expression compared with CPT control treated cells [4]: higher caspase-3 expression
mitochondrial membrane potential (ΔΨm) compared to control (untreated) cells (JURKAT cells [5]): Significant decrease
Proliferation of the cancer cells (NCI-H460 cells): significantly inhibited in a concentration-dependent manner
number of TUNEL-positive cells compared with untreated or control cells (JURKAT cells [6]): significant increase
DNA fragmentation relative to CTP (control) treated cells (JURKAT cells [6]; CPT 40 μM): increased DNA fragmentation
Proliferation of the cancer cells (MCF7 cells): significantly inhibited in a concentration-dependent manner
pIC50 (JURKAT cells [2]; MTT, 24 h, read-out: IC50 (half maximal inhibitory concentration)): 4.81
pIC50 (JURKAT cells [2]; MTT, 48 h, read-out: IC50 (half maximal inhibitory concentration)): 4.99
Proliferation of the cancer cells (JURKAT cells [2]; JURKAT, 1-20 μM, 24 and 48 hours): significantly inhibited in a concentration-dependent manner
Inhibition compared to positive control CPT (40 μM) (JURKAT cells [2]; compound 4 at 15 μM and 20 μM): higher inhibition
Proliferation of the cancer cells (HCT116 cells): significantly inhibited in a concentration-dependent manner
